Among the data in PubChem BioAssay (NCI) are GI50 and TGI values, retold here.

Assay in all cases: DTP human tumour cell line panel, 48 h
Experiment [1] has as its system A549 NSCLC.
Experiment [2] has as its system HCT-15 colon.
In experiment [3] the test system is IGROV1 ovarian.
Experiment [4] relates to LOX IMVI melanoma.
In experiment [5] the test system is MDA-MB-231 breast.
Experiment [6] concerns OVCAR-4 ovarian.
In experiment [7] the test system is SN12C renal.
Experiment [8] concerns SNB-19 CNS.
Experiment [9] has as its system UACC-257 melanoma.
Experiment [10] has as its system UO-31 renal.

Each structure is given as a SMILES string.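 Cells were grown in 96-well plates and exposed to each compound for 48 hours at five concentrations; endpoints were interpolated linearly between bracketing concentrations, or set to the highest concentration if not reached. GI50 is the concentration that inhibits growth by half. At the TGI there is no net growth.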

In the case of `CC(=O)c1c(C)[nH]c(-c2nc3ccc(N4CCN(C)CC4)cc3[nH]2)c1-c1ccc(N(C)C)cc1`, the GI50 in experiment [1] was 1.04 µM; in [2], 0.478 µM; in experiment [3] it was 0.936 µM; in experiment [4] it was 0.359 µM; in experiment [5] it was 0.645 µM; in [6], 1.17 µM. Moreover, the GI50 is 1.76 µM in [7], 1.89 µM in experiment [8], 1.03 µM in experiment [9] and 0.211 µM in experiment [10]. In addition, the TGI was above 48.4 µM in experiment [1]; 14.1 µM in experiment [2]; 12.3 µM in experiment [3]; 1.85 µM in [4]; 16.9 µM in experiment [5]; 33.6 µM in experiment [6]. Besides, the TGI in experiment [7] is 43.1 µM; in [8], above 100 µM; in experiment [9], 11 µM; in [10] it was 7.33 µM.
Take `N=c1ccn(O)cc1/C=C1/C(=O)Nc2ccccc21`: the GI50 in experiment [1], in [2], in experiment [3], in [4], in [5] and in experiment [6] was above 100 µM in each case. Further, the GI50 in [7], in [8], in experiment [9] and in [10] was above 100 µM in each case. The TGI in [1], in [2], in [3], in experiment [4], in experiment [5] and in [6] was above 100 µM in each case. For the same molecule, the TGI in experiment [7], in experiment [8], in experiment [9] and in experiment [10] was above 100 µM each time.
As to `CC(=O)OC(C)(C)/C(C)=C/C(=O)O[C@H]1C(=O)O[C@@H]2C[C@H]3[C@H](C)C(=O)C(O[C@@H]4O[C@H](CO)[C@@H](O)[C@H](O)[C@H]4O)=C[C@]3(C)[C@H]3[C@@H](O)[C@H](O)[C@@]4(C(=O)O)OC[C@]32[C@@H]14`, the GI50 in experiment [1], in experiment [2], in experiment [3], in [5], in experiment [6] and in [7] was above 100 µM in each case. In addition, the GI50 in [8], in experiment [9] and in [10] was above 100 µM throughout. Moreover, the total growth inhibition concentration (TGI) in experiment [1], in [2], in experiment [3], in experiment [4], in [5] and in experiment [6] was above 100 µM in each case. The TGI in experiment [7], in [8], in experiment [9] and in [10] was above 100 µM each time.
For `CC(C)=CCC[C@](C)(O)[C@H]1CC[C@]2(C)[C@@H]1CC[C@@H]1[C@@]3(C)CC/C(=N/O)C(C)(C)[C@@H]3CC[C@]12C`, the GI50 in experiment [1] is 5.86 µM; in experiment [2] it was 10.6 µM; in experiment [3], 20 µM; in experiment [4], 15.7 µM; in experiment [5], 9.95 µM; in [6] it was 13.9 µM. Also, the GI50 in experiment [7] was 8.48 µM; in experiment [8], 12.2 µM; in experiment [9], 29.5 µM; in experiment [10], 16.9 µM. Besides, the TGI in [1] was 62.9 µM; in experiment [2], above 100 µM; in [3], 76.6 µM; in experiment [4] it was 83 µM; in experiment [5], 37.4 µM; in experiment [6] it was above 100 µM. The concentration for total growth inhibition (TGI) in experiment [7] is 35.2 µM; in [8] it was above 100 µM; in [9] it was above 100 µM; in experiment [10], above 100 µM.
As for `O=C(Cc1ccc(F)c(F)c1)Nc1cc(C2(C(F)(F)F)CC2)nn1Cc1ccccc1`, the GI50 in [1] was 4.6 µM; in [2] it was 4.03 µM; in experiment [3], 4.47 µM; in experiment [4], 4.9 µM; in experiment [5], 3.05 µM; in experiment [6], 3.34 µM. Besides, the GI50 in experiment [7] was 4.64 µM; in experiment [8], 4.54 µM; in experiment [9] it was 3.61 µM; in experiment [10] it was 2.99 µM. For the same molecule, the concentration for total growth inhibition (TGI) in experiment [1] was above 15 µM; in [2], above 15 µM; in experiment [3] it was above 15 µM; in experiment [4] it was above 15 µM; in [5], 7.25 µM; in experiment [6] it was above 15 µM. In addition, the total growth inhibition concentration (TGI) is above 15 µM in experiment [7], above 15 µM in experiment [8], 12.4 µM in experiment [9] and 10.5 µM in experiment [10].
On to `c1ccc(CN2COc3c(ccc4c3OCN(Cc3ccccc3)C4)C2)cc1`, for which the GI50 is 0.477 µM in experiment [1]; 0.0906 µM in experiment [2]; 0.802 µM in [3]; 0.825 µM in experiment [4]; 0.564 µM in [5]; 0.333 µM in experiment [6]. The GI50 was 0.559 µM in experiment [7], 1 µM in [8], 0.763 µM in experiment [9] and 0.122 µM in experiment [10]. Further, the concentration for total growth inhibition (TGI) in experiment [1], in experiment [2], in experiment [3], in [4], in experiment [5] and in experiment [6] was above 100 µM each time. In addition, the TGI in experiment [7] is above 100 µM; in [8], above 100 µM; in experiment [9], 6.53 µM; in experiment [10] it was 1.41 µM.
For the molecule `CC(C)O/N=C/c1cc(NC(=S)OC(C)C)ccc1Cl`, the concentration for total growth inhibition (TGI) in [1] was above 90.6 µM; in experiment [2], above 66.1 µM; in experiment [3], above 94.1 µM; in experiment [4], above 52.5 µM; in experiment [5] it was 62 µM; in experiment [6], above 88.8 µM. Further, the TGI in experiment [7] was above 57.9 µM; in experiment [8], above 72.4 µM; in experiment [9], above 100 µM; in experiment [10], above 61.2 µM.

Usually GI50 stands for the concentration at which growth is held to half of that of the control. As usually defined, the TGI is the concentration at which net growth stops. High values mean lower sensitivity of the cells, low ones greater sensitivity of the cells.
